Data published in PMC11491488 (Scientific Reports, 2024).

Columns and labels:
[1] = system: gram-negative Pseudomonas aeruginosa (P. aeruginosa); experiment: MIC assay, percentage growth inhibition, serial dilution in 96-well plates; type: cell-based; details: for inhibition of bacterial cells: at higher concentrations
[2] = system: gram-positive Staphylococcus aureus (S. aureus); experiment: as above; type: cell-based; details: for inhibition of bacterial cells: at higher concentrations

Structure (SMILES)	percent of P. aeruginosa killed ([1]; 4 µg/mL) [%]	inhibition of bacterial cells [1] [%]	percent of S. aureus killed ([2]; 12 µg/mL) [%]	inhibition of bacterial cells [2] [%]	inhibition at 40 µg/mL ([1]; Pseudomonas aeruginosa, read-out: inhibitory effect against P. aeruginosa) [%]	inhibition at 128 µg/mL ([2]; Staphylococcus aureus, read-out: inhibitory effect against S. aureus) [%]
O=C(O)c1cn(C2CC2)c2cc(N3CCNCC3)c(F)cc2c1=O [CIPRO, ciprofloxacin]	100.67 ± 0.39	90	98.30 ± 0.26	90	–	–
C[C@H]1COc2c(N3CCN(C)CC3)c(F)cc3c(=O)c(C(=O)O)cn1c23 [LEVO, levofloxacin]	–	90	–	90	–	–
CCn1cc(C(=O)O)c(=O)c2cc(F)c(N3CCNCC3)cc21 [NOR, norfloxacin]	–	90	–	90	100.4 ± 0.17	97.9 ± 0.38
